Data: patent US8993622B2, “Antiviral compounds” (Eirium AB, priority 2010, dated 2015)
Read-outs that look alike come from different tables or passages of the source.

Tests used:
[1] = test system: Ad5; assay: microbe, parasite or virus in culture; format: cell-based, human adenovirus; conditions: for inhibition at 5 µM: A549, read-out: % Inh. at 5 μM; for inhibition at 20 µM: A549, read-out: % Inh. at 20 μM; for EC50: A549; for Inh. (% inhibition of Ad5 at 15 μM): Ad5, 15 μM (Table 2)
[2] = test system: cells; assay: Cellular toxicity of select compounds (% dead cells, CC50); format: cell-based
[3] = unidentified adenovirus, A549, read-out: % Inh. at 15 μM

Compound | inhibition at 5 µM ([1]; unidentified adenovirus) [%] | inhibition at 15 µM [1, 3] [%] | other results
O=C(O)Cc1ccccc1NC(=O)c1ccccc1NC(=O)c1ccccc1 [Compound 23, 2-[2-(benzoylamino)benzoylamino]phenylacetic acid] | 0 | 0 | 
CC(=O)Nc1ccccc1C(=O)Nc1ccccc1C(=O)O [Compound 17a, 2-[2-(Acetylamino)benzoylamino]benzoic acid] | 4 ± 11 | 24 ± 14 | 
O=C(Nc1ccccc1C(=O)Nc1ccccc1)c1ccccc1 [Compound 11, 2-Benzoylamino-N-phenyl-benzamide] |  |  | inhibition at 15 µM ([1]; Human adenovirus sp., A549, read-out: Inh. (% inhibition of Ad5 at 15 μM)): 18%
O=C(Cc1ccccc1)Nc1ccccc1C(=O)Nc1ccccc1C(=O)O [Compound 17k, 2-[2-(Phenylacetylamino)benzoylamino]benzoic acid] | 32 ± 19 | 21 ± 12 | 
Cc1ccc(S(=O)(=O)Nc2ccccc2C(=O)Nc2ccccc2C(=O)O)cc1 [Compound 17c, 2-[2-(p-Toluenesulfonylamino)benzoylamino]benzoic acid] | 2 ± 24 | 8 ± 35 | 
O=C(Nc1ccccc1C(=O)Nc1cc(F)c(F)cc1C(=O)O)c1ccccc1F [Compound 35e, 2-[2-(2-fluorobenzoylamino)-benzoylamino]-4,5-difluorobenzoic acid] | 0 | 0 | 
O=C(Nc1ccccc1C(=O)Nc1ccccc1C(=O)O)c1cccc(F)c1 [Compound 17i, 2-[2-(3-Fluorobenzoylamino)-benzoylamino]benzoic acid] | 41 ± 32 | 0 | 
COc1ccc(C(=O)Nc2ccccc2C(=O)Nc2ccccc2C(=O)O)cc1 [Compound 12f, 2-[[2-(4-Methoxy-benzoylamino)benzoyl]amino]-benzoic acid] |  |  | inhibition at 5 µM ([1]; Human adenovirus sp.): 25.2%; inhibition at 20 µM ([1]; Human adenovirus sp.): 96.5%
CC(C)(C)C(=O)Nc1ccccc1C(=O)Nc1ccccc1C(=O)O [Compound 17d, 2-[2-(Trimethylacetylamino)benzoylamino]benzoic acid] | 45 ± 7 | 52 ± 18 | 
O=C(Nc1ccccc1C(=O)Nc1ccc(Cl)cc1C(=O)O)c1ccccc1F [Compound 35b, 2-[2-(2-fluorobenzoylamino)benzoylamino]-5-chlorobenzoic acid] | 0 | 0 | 
O=C(Nc1ccccc1C(=O)O)c1ccccc1 [Compound A01, reference compound] |  |  | effect on the replication of Ad5 (QPCR) ([1]; A549 cells): Neither the smaller (A01) nor the larger (A03) molecule showed any anti-adenoviral effect
O=C(Nc1cc(Cl)ccc1C(=O)Nc1ccccc1C(=O)O)c1ccccc1F [Compound 35f, 2-[4-chloro-2-(2-fluorobenzoylamino)-benzoylamino]benzoic acid] | 57 ± 5 | 78 ± 2 | EC50 ([1]; unidentified adenovirus): 4.14 µM; Toxicity at 30 μM (% dead cells after 24 h) [2]: 14 ± 5%; Toxicity at 60 μM (% dead cells after 24 h) [2]: 25 ± 8%
Cc1ccc(C(=O)Nc2ccccc2C(=O)Nc2ccccc2C)cc1 [Compound 12g, 4-Methyl-N-{2-[(2-methylphenyl)carbamoyl]phenyl}-benzamide] |  |  | inhibition at 5 µM ([1]; Human adenovirus sp.): 24.5%; inhibition at 20 µM ([1]; Human adenovirus sp.): 22.2%
O=C(Nc1ccccc1C(=O)Nc1ccccc1C(=O)O)c1ccccc1F [Compound 17h, 2-[2-(2-Fluorobenzoylamino)-benzoylamino]benzoic acid] | 96 ± 1 | 96 ± 1 | activity compared with A02 (inhibition of adenovirus replication) ([1]; second generation inhibitors, Table 4): statistically significantly higher activity than A02; EC50 ([1]; unidentified adenovirus): 2.3 µM; Toxicity at 30 μM (% dead cells after 24 h) [2]: 17 ± 9%; Toxicity at 60 μM (% dead cells after 24 h) [2]: 29 ± 12%; cellular toxicity compared with A02 ([2]; Table 7): slightly more toxic than A02
O=C(Nc1cccc(C(=O)Nc2ccccc2C(=O)O)c1)c1ccccc1 [Compound 8c, 2-[(3-benzoylamino)benzoylamino]-benzoic acid] |  |  | Inh. (% inhibition of Ad5 at 15 μM) [1]: 39%
CCOC(=O)c1ccccc1NC(=O)c1ccc(NC(=O)c2ccccc2)cc1 [Compound 7d, Ethyl 2-[(4-benzoylamino)benzoylamino]-benzoate] |  |  | Inh. (% inhibition of Ad5 at 15 μM) [1]: 15%
O=C(Nc1ccccc1C(=O)Nc1cc(Cl)ccc1C(=O)O)c1ccccc1F [Compound 35a, 2-[2-(2-fluorobenzoylamino)-benzoylamino]-4-chlorobenzoic acid] | 0 | 61 | 
COc1ccc(NC(=O)c2ccccc2NC(=O)c2ccccc2F)c(C(=O)O)c1 [Compound 35d, 2-[2-(2-fluorobenzoylamino)-benzoylamino]-5-methoxybenzoic acid] | 28 ± 20 | 78 ± 3 | 
Cc1ccccc1C(=O)Nc1cccc(C(=O)Nc2ccccc2C(=O)O)c1 [Compound 12e, 2-[[3-(2-Methyl-benzoylamino)benzoyl]amino]-benzoic acid] |  |  | inhibition at 5 µM ([1]; Human adenovirus sp.): 44%; inhibition at 20 µM ([1]; Human adenovirus sp.): 55.8%
